{"source": "patent US11266692B2", "about": "“Intracellular genomic transplant and methods of therapy” (Regents of the University of Minnesota, priority 2015, dated 2022)", "data": [{"system": "CCR5", "assay": "Validation of gRNAs: Cas9/gRNA plasmids in HEK293T, Surveyor digest, gel densitometry", "assay_type": "cell-based, human", "details": "CCR5 gene site, 3 days", "experimental": "(§1) HEK293T cells were plated out at a density of 1×10^5 cells per well in a 24 well plate. 150 uL of Opti-MEM medium was combined with 1.5 ug of gRNA plasmid, 1.5 ug of Cas9 plasmid. Another 150 uL of Opti-MEM medium was combined with 5 ul of Lipofectamine 2000 Transfection reagent (Invitrogen). The solutions were combined together and incubated for 15 minutes at room temperature. The DNA-lipid complex was added dropwise to wells of the 24 well plate. Cells were incubated for 3 days at 37° C. and genomic DNA was collected using the GeneJET Genomic DNA Purification Kit (Thermo Scientific). Activity of the gRNAs was quantified by a Surveyor Digest, gel electrophoresis, and densitometry (FIG. 60 and FIG. 61) (Guschin, D. Y., et al., “A Rapid and General Assay for Monitoring Endogenous Gene Modification,” Methods in Molecular Biology, 649: 247-256 (2010)).\n(§2) The efficiencies of Cas9 in creating double strand break (DSB) with the assistance of different gRNA sequences were listed in Table 7. The percentage numbers in Table 7 indicated the percent of gene modifications in the sample.", "units": {"efficiency of Cas9/gRNA pair in creating double strand break (DSB), percent of gene modifications": "%"}, "values": [{"substance": "CCR5 gRNA#1: guide RNA to CCR5; sense primer SEQ ID 61 CACCGACAATGTGTCAACTCTTGAC", "efficiency of Cas9/gRNA pair in creating double strand break (DSB), percent of gene modifications": 21.47}, {"substance": "CCR5 gRNA#2: guide RNA to CCR5; sense primer SEQ ID 63 CACCGTCATCCTCCTGACAATCGAT", "efficiency of Cas9/gRNA pair in creating double strand break (DSB), percent of gene modifications": ">60"}, {"substance": "CCR5 gRNA#3: guide RNA to CCR5; sense primer SEQ ID 65 CACCGGTGACAAGTGTGATCACTT", "efficiency of Cas9/gRNA pair in creating double strand break (DSB), percent of gene modifications": 55.98}, {"substance": "CCR5 gRNA#4: guide RNA to CCR5; sense primer SEQ ID 67 CACCGACACAGCATGGACGACAGCC", "efficiency of Cas9/gRNA pair in creating double strand break (DSB), percent of gene modifications": 45.99}, {"substance": "CCR5 gRNA#5: guide RNA to CCR5; sense primer SEQ ID 69 CACCGATCTGGTAAAGATGATTCC", "efficiency of Cas9/gRNA pair in creating double strand break (DSB), percent of gene modifications": 36.07}, {"substance": "CCR5 gRNA#6: guide RNA to CCR5; sense primer SEQ ID 71 CACCGTTGTATTTCCAAAGTCCCAC", "efficiency of Cas9/gRNA pair in creating double strand break (DSB), percent of gene modifications": 33.17}]}, {"system": "CTLA4", "assay": "Validation of gRNAs: Cas9/gRNA plasmids in HEK293T, Surveyor digest, gel densitometry", "assay_type": "cell-based, human", "details": "CTLA4 gene site, 3 days", "experimental": "as §1, §2", "units": {"efficiency of Cas9/gRNA pair in creating double strand break (DSB), percent of gene modifications": "%"}, "values": [{"substance": "CTLA4 gRNA#1: guide RNA to CTLA4; sense primer SEQ ID 47 CACCGCCGGGTGACAGTGCTTCGGC", "efficiency of Cas9/gRNA pair in creating double strand break (DSB), percent of gene modifications": 40.96}, {"substance": "CTLA4 gRNA#2: guide RNA to CTLA4; sense primer SEQ ID 49 CACCGTGCGGCAACCTACATGATG", "efficiency of Cas9/gRNA pair in creating double strand break (DSB), percent of gene modifications": 56.10}, {"substance": "CTLA4 gRNA#3: guide RNA to CTLA4; sense primer SEQ ID 51 CACCGCTAGATGATTCCATCTGCAC", "efficiency of Cas9/gRNA pair in creating double strand break (DSB), percent of gene modifications": 39.33}, {"substance": "CTLA4 gRNA#4: guide RNA to CTLA4; sense primer SEQ ID 53 CACCGAGGTTCACTTGATTTCCAC", "efficiency of Cas9/gRNA pair in creating double strand break (DSB), percent of gene modifications": 40.13}, {"substance": "CTLA4 gRNA#5: guide RNA to CTLA4; sense primer SEQ ID 55 CACCGCCGCACAGACTTCAGTCACC", "efficiency of Cas9/gRNA pair in creating double strand break (DSB), percent of gene modifications": 15.90}, {"substance": "CTLA4 gRNA#6: guide RNA to CTLA4; sense primer SEQ ID 57 CACCGCTGGCGATGCCTCGGCTGC", "efficiency of Cas9/gRNA pair in creating double strand break (DSB), percent of gene modifications": 36.93}]}, {"system": "HPRT", "assay": "Validation of gRNAs: Cas9/gRNA plasmids in HEK293T, Surveyor digest, gel densitometry", "assay_type": "cell-based, human", "details": "HPRT gene site, 3 days", "experimental": "as §1, §2", "values": [{"substance": "HPRT gRNA#1: guide RNA to HPRT; sense primer SEQ ID 5 CACCGCACGTGTGAACCAACCCGCC", "efficiency of Cas9/gRNA pair in creating double strand break (DSB), percent of gene modifications": "27.85% ^"}, {"substance": "HPRT gRNA#2: guide RNA to HPRT; sense primer SEQ ID 7 CACCGAAACAACAGGCCGGGCGGGT", "efficiency of Cas9/gRNA pair in creating double strand break (DSB), percent of gene modifications": "30.04% ^"}, {"substance": "HPRT gRNA#3: guide RNA to HPRT; sense primer SEQ ID 9 CACCGACAAAAAAATTAGCCGGGTG", "efficiency of Cas9/gRNA pair in creating double strand break (DSB), percent of gene modifications": "<1%"}, {"substance": "HPRT gRNA#4: guide RNA to HPRT; sense primer SEQ ID 11 CACCGTAAATTTCTCTGATAGACTA", "efficiency of Cas9/gRNA pair in creating double strand break (DSB), percent of gene modifications": "<5%"}, {"substance": "HPRT gRNA#5: guide RNA to HPRT; sense primer SEQ ID 13 CACCGTGTTTCAATGAGAGCATTAC", "efficiency of Cas9/gRNA pair in creating double strand break (DSB), percent of gene modifications": "<1%"}, {"substance": "HPRT gRNA#6: guide RNA to HPRT; sense primer SEQ ID 15 CACCGGTCTCGAACTCCTGAGCTC", "efficiency of Cas9/gRNA pair in creating double strand break (DSB), percent of gene modifications": "<5%"}]}, {"system": "PD1", "assay": "Validation of gRNAs: Cas9/gRNA plasmids in HEK293T, Surveyor digest, gel densitometry", "assay_type": "cell-based, human", "details": "PD1 gene site, 3 days", "experimental": "as §1\n(§3) The percentage numbers in Table 7 indicated the percent of gene modifications in the sample.", "units": {"efficiency of Cas9/gRNA pair in creating double strand break (DSB), percent of gene modifications": "%"}, "values": [{"substance": "PD1 gRNA#1: guide RNA to PD-1; sense primer SEQ ID 33 CACCGCGGAGAGCTTCGTGCTAAAC", "efficiency of Cas9/gRNA pair in creating double strand break (DSB), percent of gene modifications": 10.83}, {"substance": "PD1 gRNA#2: guide RNA to PD-1; sense primer SEQ ID 35 CACCGCCTGCTCGTGGTGACCGAAG", "efficiency of Cas9/gRNA pair in creating double strand break (DSB), percent of gene modifications": ">60"}, {"substance": "PD1 gRNA#4: guide RNA to PD-1; sense primer SEQ ID 39 CACCGAGGCGGCCAGCTTGTCCGTC", "efficiency of Cas9/gRNA pair in creating double strand break (DSB), percent of gene modifications": 20.87}, {"substance": "PD1 gRNA#5: guide RNA to PD-1; sense primer SEQ ID 41 CACCGCGTTGGGCAGTTGTGTGACA", "efficiency of Cas9/gRNA pair in creating double strand break (DSB), percent of gene modifications": 30.60}, {"substance": "PD1 gRNA#6: guide RNA to PD-1; sense primer SEQ ID 43 CACCGACGGAAGCGGCAGTCCTGGC", "efficiency of Cas9/gRNA pair in creating double strand break (DSB), percent of gene modifications": 25.91}]}, {"system": "AAVS1", "assay": "Validation of gRNAs: Cas9/gRNA plasmids in HEK293T, Surveyor digest, gel densitometry", "assay_type": "cell-based, human", "details": "AAVS1 gene site, 3 days", "experimental": "as §1, §3", "units": {"efficiency of Cas9/gRNA pair in creating double strand break (DSB), percent of gene modifications": "%"}, "values": [{"substance": "AAVS1 gRNA#1: guide RNA to AAVS1; sense primer SEQ ID 19 CACCGTGGGGGTTAGACCCAATATC", "efficiency of Cas9/gRNA pair in creating double strand break (DSB), percent of gene modifications": 32.99}, {"substance": "AAVS1 gRNA#2: guide RNA to AAVS1; sense primer SEQ ID 21 CACCGACCCCACAGTGGGGCCACTA", "efficiency of Cas9/gRNA pair in creating double strand break (DSB), percent of gene modifications": 27.10}, {"substance": "AAVS1 gRNA#5: guide RNA to AAVS1; sense primer SEQ ID 27 CACCGCCGGCCCTGGGAATATAAGG", "efficiency of Cas9/gRNA pair in creating double strand break (DSB), percent of gene modifications": 27.55}, {"substance": "AAVS1 gRNA#6: guide RNA to AAVS1; sense primer SEQ ID 29 CACCGCGGGCCCCTATGTCCACTTC", "efficiency of Cas9/gRNA pair in creating double strand break (DSB), percent of gene modifications": 39.62}]}]}
